Measured values published in US9598434B2, “Benzazepine compound” (Astellas Pharma Inc., priority 2010, dated 2017).

| Structure (SMILES) | melting point |
| --- | --- |
| Cl.FC(F)(F)CN1CCOc2cc3c(c(Br)c21)CCNCC3 | 214 to 215 °C |
| COC[C@H](CN1CCOc2cc3c(c(C4CC4)c21)CCNCC3)OC.O=C(O)/C=C/C(=O)O | 150 to 154 °C |
| CCCc1c2c(cc3c1OCCN3C(=O)OCCc1ccccc1)CCNCC2.O=C(O)/C=C/C(=O)O | 134 to 136 °C |
| COCCN1c2cc3c(cc2OC[C@@H]1C)CCNCC3.O=C(O)/C=C/C(=O)O | 131 to 134 °C |
| CC(COC(=O)N1CCOc2cc3c(cc21)CCNCC3)c1ccccc1.O=C(O)CCC(=O)O (centres unmarked) | 177 to 179 °C |
| O=C(O)CCC(=O)O.c1ccc(OCCN2CCOc3cc4c(cc32)CCNCC4)cc1 | 132 to 134 °C |
| C[C@H](F)CN1CCOc2cc3c(c(C4CC4)c21)CCNCC3.O=C(O)/C=C/C(=O)O | 171 to 173 °C |
| O=C(O)/C=C/C(=O)O.c1c2c(c(C3CC3)c3c1OCCN3CC1CCOC1)CCNCC2 (centres unmarked) | 117 to 118 °C |
| COc1cccc(CN2C(=O)COc3cc4c(cc32)CCNCC4)c1.O=C(O)CCC(=O)O | 188 to 189 °C |
| CC(C)COC(=O)N1CCCc2cc3c(cc21)CCNCC3.Cl | 202 to 207 °C |
| COc1ccc(Cl)cc1CN1CCOc2cc3c(c(C4CC4)c21)CCNCC3.O=C(O)/C=C/C(=O)O | 193 to 196 °C |
| COc1ccc(F)cc1CN1CCOc2cc3c(c(C4CC4)c21)CCNCC3.O=C(O)/C=C/C(=O)O | 189 to 192 °C |
| O=C(O)/C=C/C(=O)O.OCCN1CCOc2cc3c(c(C4CC4)c21)CCNCC3 | 146 to 150 °C |
| O=C(O)CCC(=O)O.O=C(OCCc1ccccc1F)N1CCOc2cc3c(cc21)CCNCC3 | 186 to 187 °C |
| CCOC(=O)N1CCOc2c1cc1c(c2Cl)CCNCC1.O=C(O)CCC(=O)O | 145 to 147 °C |
| O=C(O)CCC(=O)O.O=C(OCCc1ccccc1)N1CCOc2c1cc1c(c2C2CC2)CCNCC1 | 142 to 144 °C |
| COCC(CN1CCOc2cc3c(c(C4CC4)c21)CCNCC3)Oc1ccc(F)cc1F.O=C(O)/C=C/C(=O)O (centres unmarked) | 150 to 151 °C |
| c1c2c(c(C3CC3)c3c1OCCN3C[C@H]1CCCO1)CCNCC2 [Example 227] | 156 to 158 °C |
| COCCN1C(=O)CCc2cc3c(cc21)CCNCC3.O=C(O)/C=C/C(=O)O | 164 to 166 °C |
| O=C(O)/C=C/C(=O)O.c1cc(CN2CCOc3cc4c(c(C5CC5)c32)CCNCC4)c2c(c1)OCCO2 | 184 to 187 °C |
| Clc1ccccc1CN1CCOc2cc3c(c(C4CC4)c21)CCNCC3.O=C(O)CCC(=O)O | 106 to 109 °C |
| CCc1c2c(cc3c1N(CCCF)CCO3)CCNCC2 [Example 264] | 153 to 154 °C |

| Structure (SMILES) | melting point |
| --- | --- |
| COCCCN1C(=O)CCc2cc3c(c(Br)c21)CCNCC3.O=C(O)/C=C/C(=O)O | 153 to 155 °C |
| CC(Cc1ccccc1)OC(=O)N1CCOc2cc3c(cc21)CCNCC3.O=C(O)CCC(=O)O (centres unmarked) | 85 to 87 °C |
| COCC(CN1CCOc2cc3c(c(C4CC4)c21)CCNCC3)Oc1ccc(F)cc1.O=C(O)/C=C/C(=O)O (centres unmarked) | 138 to 140 °C |
| CCCN1C(=O)CCc2cc3c(cc21)CCNCC3.Cl | 125 to 129 °C |
| CCCN1CCOc2cc3c(c(C4CC4)c21)CCNCC3.O=C(O)/C=C/C(=O)O | 138 to 141 °C |
| O=C(O)CCC(=O)O.O=C(OCCc1ccccc1)N1CCOc2cc3c(cc21)CCNCC3 | 185 to 187 °C |
| CCOCCN1CCOc2cc3c(c(C)c21)CCNCC3.O=C(O)/C=C/C(=O)O | 152 to 155 °C |
| O=C(O)CCC(=O)O.O=C(OCCc1ccc(F)cc1)N1CCOc2cc3c(cc21)CCNCC3 | 179 to 181 °C |
| CC1(C)CCNc2cc3c(cc21)CCNCC3 [Example 159] | 288 to 290 °C |
| COCCN1c2cc3c(cc2CCC1(C)C)CCNCC3.O=C(O)/C=C/C(=O)O | 156 to 158 °C |
| O=C(O)CCC(=O)O.O=C(OCCc1ccccc1)N1CCOc2c1cc1c(c2Br)CCNCC1 | 142 to 143 °C |
| CCCc1c2c(cc3c1N(C)CCO3)CCNCC2 [Example 225] | 151 to 152 °C |
| c1c2c(c(C3CC3)c3c1OCCN3CC1CCOCC1)CCNCC2 [Example 250] | 153 to 155 °C |
| CCN1CCOc2cc3c(c(C4CC4)c21)CCNCC3.O=C(O)/C=C/C(=O)O | 174 to 177 °C |
| Fc1cccc(CN2CCOc3cc4c(c(C5CC5)c32)CCNCC4)c1.O=C(O)CCC(=O)O | 102 to 105 °C |
| COc1ccccc1CCOC(=O)N1CCOc2cc3c(cc21)CCNCC3.O=C(O)CCC(=O)O | 158 to 160 °C |
| COCCN1CCOc2cc3c(c(C=C(C)C)c21)CCNCC3.O=C(O)/C=C/C(=O)O | 173 to 176 °C |
| COCCN1CCOc2c1cc1c(c2Cl)CCNCC1.O=C(O)CCC(=O)O | 139 to 141 °C |
| COCC(CN1CCOc2cc3c(c(C4CC4)c21)CCNCC3)Oc1ccccc1F.O=C(O)/C=C/C(=O)O (centres unmarked) | 132 to 133 °C |
| O=C(O)CCC(=O)O.O=C(OCCc1ccccc1Cl)N1CCCc2cc3c(cc21)CCNCC3 | 187 to 188 °C |
| CC(C)CN1C(=O)CCc2cc3c(cc21)CCNCC3.O=C(O)CCC(=O)O | 142 to 144 °C |
| COCCN1C(=O)C(C)(C)Oc2cc3c(cc21)CCNCC3.O=C(O)/C=C/C(=O)O | 175 to 176 °C |

| Structure (SMILES) | melting point |
| --- | --- |
| FC(F)(F)c1cccc(CN2CCOc3cc4c(cc32)CCNCC4)c1.O=C(O)/C=C/C(=O)O | 141 to 146 °C |
| COc1cc(OCCN2CCOc3cc4c(c(C5CC5)c32)CCNCC4)c(F)cc1C#N.O=C(O)/C=C/C(=O)O | 125 to 128 °C |
| COCCN1CC(C)Oc2cc3c(c(C4CC4)c21)CCNCC3.O=C(O)/C=C/C(=O)O (centres unmarked) | 102 to 103 °C |
| COCC(F)(F)CN1CCOc2cc3c(cc21)CCNCC3.Cl | 172 to 173 °C |
| O=C(O)CCC(=O)O.O=C(OCCc1ccccc1Cl)N1CCOc2cc3c(cc21)CCNCC3 | 169 to 170 °C |
| O=C(O)CCC(=O)O.O=C1COc2cc3c(cc2N1Cc1ccccc1Cl)CCNCC3 | 119 to 127 °C |
| CC1(C)CCc2cc3c(cc2N1)CCNCC3 | 270 to 273 °C |
| Cc1c2c(cc3c1N(CCCF)CCO3)CCNCC2.O=C(O)/C=C/C(=O)O | 187 to 190 °C |
| CCc1c2c(cc3c1N(C)CCO3)CCNCC2 [Example 226] | 184 to 185 °C |
| CC1(C)CC(=O)Nc2cc3c(cc21)CCNCC3.Cl | 270 to 272 °C |
| CCOCc1cc(F)c(OCCN2CCOc3cc4c(c(C5CC5)c32)CCNCC4)c(F)c1.O=C(O)/C=C/C(=O)O | 138 to 139 °C |
| CCCN1C(=O)CCc2cc3c(c(C4CC4)c21)CCNCC3.O=C(O)CCC(=O)O | 170 to 171 °C |
| COCCN1CCOc2cc3c(c(-c4ccccc4)c21)CCNCC3.O=C(O)/C=C/C(=O)O | 199 to 201 °C |
| O=C(O)CCC(=O)O.O=C(OCCc1cccc(F)c1)N1CCOc2cc3c(cc21)CCNCC3 | 162 to 164 °C |
| FC1(F)Oc2ccc(CN3CCOc4cc5c(c(C6CC6)c43)CCNCC5)cc2O1.O=C(O)/C=C/C(=O)O | 161 to 164 °C |
| COCC(F)(F)CN1CCOc2cc3c(c(C4CC4)c21)CCNCC3.O=C(O)/C=C/C(=O)O | 163 to 165 °C |
| Cl.FC(F)(F)CN1CCOc2cc3c(cc21)CCNCC3 | 221 to 222 °C |
| CCNC(=O)N1CCCc2cc3c(c(C)c21)CCNCC3.O=C(O)C(=O)O | 170 to 171 °C |
| CCCN1C(=O)CCc2cc3c(c(-c4ccccc4)c21)CCNCC3.O=C(O)CCC(=O)O | 196 to 200 °C |
| CCNC(=O)N1CCCc2cc3c(cc21)CCNCC3.O=C(O)/C=C/C(=O)O | 174 to 176 °C |
| COCCN1c2cc3c(cc2OC[C@H]1C)CCNCC3.O=C(O)/C=C/C(=O)O | 133 to 136 °C |
| O=C(O)CCC(=O)O.O=C(OCCc1ccccc1)N1CCOc2c1cc1c(c2-c2ccccc2)CCNCC1 | 169 to 171 °C |

| Structure (SMILES) | melting point |
| --- | --- |
| O=C1CCc2cc3c(c(Cl)c2N1)CCNCC3 [Example 1, 11-chloro-1,3,4,6,7,8,9,10-octahydro-2H-azepino[4,5-g]quinolin-2-one] | 165 to 167 °C |
| Cl.FC(F)(F)CN1CCOc2c1cc1c(c2Br)CCNCC1 | 216 to 221 °C |
| O=C(O)C(=O)O.O=C(OCCc1ccccc1)N1CCCc2cc3c(c(Br)c21)CCNCC3 | 176 to 177 °C |
| CN1CCOc2cc3c(c(-c4cccs4)c21)CCNCC3.O=C(O)/C=C/C(=O)O | 248 to 252 °C |
| Fc1cccc(CN2CCOc3cc4c(c(C5CC5)c32)CCNCC4)c1F.O=C(O)/C=C/C(=O)O | 157 to 159 °C |
| Fc1c(Cl)cccc1CN1CCOc2cc3c(c(C4CC4)c21)CCNCC3.O=C(O)/C=C/C(=O)O | 181 to 184 °C |
| COCCN1CCC(C)(C)c2cc3c(cc21)CCNCC3.O=C(O)/C=C/C(=O)O | 172 to 175 °C |
| CC(C)CN1CCOc2cc3c(c(C4CC4)c21)CCNCC3 [Example 262] | 160 to 162 °C |
| O=C(O)CCC(=O)O.O=C(OCCc1cccc(Cl)c1)N1CCOc2cc3c(cc21)CCNCC3 | 160 to 162 °C |
| CCOC(=O)N1CCCc2cc3c(c(Br)c21)CCNCC3.O=C(O)C(=O)O | 187 to 189 °C |
| COCCN1CCOc2c1cc1c(c2Br)CCNCC1 [Example 176] | 107 to 110 °C |
| COCC(C)(C)CN1CCOc2cc3c(c(C4CC4)c21)CCNCC3 [Example 231] | 141 to 145 °C |
| COCCN1CCOc2cc3c(c(-c4ccccc4F)c21)CCNCC3.O=C(O)/C=C/C(=O)O | 179 to 182 °C |
| COC[C@@H](CN1CCOc2cc3c(c(C4CC4)c21)CCNCC3)OC.O=C(O)/C=C/C(=O)O | 156 to 158 °C |
| COCCN1C(=O)CCc2cc3c(c(Br)c21)CCNCC3.O=C(O)/C=C/C(=O)O | 99 to 104 °C |
| CCOCCN1CCOc2cc3c(c(CC)c21)CCNCC3.O=C(O)/C=C/C(=O)O | 179 to 181 °C |
| COCC(C)CN1CCOc2cc3c(cc21)CCNCC3 (centres unmarked) [Example 318] | 129 to 132 °C |
| COCCCN1CCOc2cc3c(c(C)c21)CCNCC3.O=C(O)/C=C/C(=O)O | 160 to 163 °C |
| O=C(O)/C=C/C(=O)O.c1nc(CN2CCOc3cc4c(cc32)CCNCC4)cs1 | 134 to 138 °C |
| FC(F)CN1CCOc2cc3c(c(C4CC4)c21)CCNCC3.O=C(O)/C=C/C(=O)O | 198 to 201 °C |
